ChEMBL document CHEMBL1201862, “PubChem BioAssay data set” (2004)
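Growth conditions: 96-well plates. Treatment: test compound, 48 hours, 5 concentrations. Analysis: linear interpolation between bracketing concentrations; unreached endpoints set to highest concentration. The concentration for 50% growth inhibition is given as GI50.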 Active and inactive are the calls of the source. Rule as the data show it: active = GI50 up to about 1.1 µM and inactive = higher.

Assays:
Assay in all cases: DTP human tumour cell line panel, 48 h
[1] = tested on: MDA-N
[2] = tested on: EKVX
[3] = tested on: HCT-15
[4] = tested on: NCI/ADR-RES
[5] = tested on: BT-549
[6] = tested on: SK-MEL-2
[7] = tested on: UO-31
[8] = tested on: A549
[9] = tested on: TK-10
[10] = tested on: UACC-257
[11] = tested on: SF-268
[12] = tested on: Hs-578T
[13] = tested on: SNB-19
[14] = tested on: HL-60
[15] = tested on: OVCAR-8
[16] = tested on: UACC-62
[17] = tested on: RPMI-8226
[18] = tested on: HOP-62
[19] = tested on: SR
[20] = tested on: OVCAR-5
[21] = tested on: NCI-H23
[22] = tested on: SW-620
[23] = tested on: T47D
[24] = tested on: CAKI-1
[25] = tested on: SN12C
[26] = tested on: 786-0
[27] = tested on: MOLT-4
[28] = tested on: OVCAR-4
[29] = tested on: M14
[30] = tested on: SK-OV-3
[31] = tested on: PC-3
[32] = tested on: MCF7
[33] = tested on: COLO 205
[34] = tested on: HCT-116
[35] = tested on: SK-MEL-5
[36] = tested on: ACHN
[37] = tested on: HOP-92
[38] = tested on: SF-295
[39] = tested on: K562
[40] = tested on: NCI-H460
[41] = tested on: IGROV-1
[42] = tested on: HCC 2998
[43] = tested on: CCRF-CEM
[44] = tested on: A498
[45] = tested on: NCI-H226
[46] = tested on: KM12
[47] = tested on: SF-539
[48] = tested on: DU-145
[49] = tested on: SNB-75
[50] = tested on: U-251
[51] = tested on: MDA-MB-231
[52] = tested on: Malme-3M
[53] = tested on: LOX IMVI
[54] = tested on: NCI-H522
[55] = tested on: SK-MEL-28
[56] = tested on: OVCAR-3
[57] = tested on: MDA-MB-435
[58] = tested on: RXF 393
[59] = tested on: HT-29

## COc1cc(OC)c2c(c1)OC(c1cccnc1)C(c1ccccc1)C2=O (stereo not drawn)
[1]
  GI50: 42.7 µM (inactive)
[2]
  GI50: > 100 µM (inactive)
[3]
  GI50: > 100 µM
[4]
  GI50: 72.1 µM (inactive)
[5]
  GI50: > 100 µM (inactive)
[6]
  GI50: 34.4 µM (inactive)
[7]
  GI50: 35.8 µM (inactive)
[8]
  GI50: > 100 µM (inactive)
[9]
  GI50: > 100 µM (inactive)
[10]
  GI50: > 100 µM (inactive)
[11]
  GI50: > 100 µM (inactive)
[12]
  GI50: 49.5 µM (inactive)
[13]
  GI50: > 100 µM (inactive)
[14]
  GI50: > 100 µM (inactive)
[15]
  GI50: 59.3 µM (inactive)
[16]
  GI50: > 100 µM (inactive)
[17]
  GI50: > 100 µM (inactive)
[18]
  GI50: > 100 µM (inactive)
[19]
  GI50: > 100 µM (inactive)
[20]
  GI50: > 100 µM (inactive)
[21]
  GI50: > 100 µM (inactive)
[22]
  GI50: > 100 µM (inactive)
[23]
  GI50: 52 µM (inactive)
[24]
  GI50: 74.8 µM (inactive)
[25]
  GI50: > 100 µM (inactive)
[26]
  GI50: > 100 µM (inactive)
[27]
  GI50: > 100 µM (inactive)
[28]
  GI50: 80.2 µM (inactive)
[29]
  GI50: > 100 µM (inactive)
[30]
  GI50: > 100 µM (inactive)
[31]
  GI50: 93.3 µM (inactive)
[32]
  GI50: > 100 µM (inactive)
[33]
  GI50: > 100 µM (inactive)
[34]
  GI50: > 100 µM (inactive)
[35]
  GI50: > 100 µM (inactive)
[36]
  GI50: > 100 µM (inactive)
[37]
  GI50: > 100 µM (inactive)
[38]
  GI50: > 100 µM (inactive)
[39]
  GI50: > 100 µM (inactive)
[40]
  GI50: 34 µM (inactive)
[41]
  GI50: > 100 µM (inactive)
[42]
  GI50: > 100 µM (inactive)
[43]
  GI50: > 100 µM (inactive)
[44]
  GI50: > 100 µM (inactive)
[45]
  GI50: > 100 µM (inactive)
[46]
  GI50: > 100 µM (inactive)
[47]
  GI50: > 100 µM (inactive)
[48]
  GI50: > 100 µM (inactive)
[49]
  GI50: > 100 µM (inactive)
[50]
  GI50: > 100 µM (inactive)
[51]
  GI50: > 100 µM (inactive)
[52]
  GI50: > 100 µM (inactive)
[53]
  GI50: > 100 µM (inactive)
[54]
  GI50: 72.1 µM (inactive)
[55]
  GI50: > 100 µM (inactive)
[56]
  GI50: 86.3 µM (inactive)
[57]
  GI50: 84.5 µM (inactive)
[58]
  GI50: > 100 µM (inactive)
[59]
  GI50: > 100 µM (inactive)

## Cc1ccc(CNNC(=O)c2cc[n+]([BH2-]C#N)cc2)cc1
[1]
  GI50: > 100 µM (inactive)
[2]
  GI50: 87.7 µM (inactive)
[3]
  GI50: > 100 µM
[4]
  GI50: > 100 µM (inactive)
[5]
  GI50: > 100 µM (inactive)
[6]
  GI50: > 100 µM (inactive)
[7]
  GI50: > 100 µM (inactive)
[8]
  GI50: 95.7 µM (inactive)
[9]
  GI50: > 100 µM (inactive)
[10]
  GI50: > 100 µM (inactive)
[11]
  GI50: > 100 µM (inactive)
[12]
  GI50: 48.5 µM (inactive)
[13]
  GI50: > 100 µM (inactive)
[14]
  GI50: 83.8 µM (inactive)
[15]
  GI50: > 100 µM (inactive)
[16]
  GI50: 17.1 µM (inactive)
[17]
  GI50: > 100 µM (inactive)
[18]
  GI50: > 100 µM (inactive)
[19]
  GI50: > 100 µM (inactive)
[20]
  GI50: > 100 µM (inactive)
[21]
  GI50: > 100 µM (inactive)
[22]
  GI50: > 100 µM (inactive)
[23]
  GI50: > 100 µM (inactive)
[24]
  GI50: > 100 µM (inactive)
[25]
  GI50: > 100 µM (inactive)
[26]
  GI50: > 100 µM (inactive)
[27]
  GI50: 71.3 µM (inactive)
[28]
  GI50: > 100 µM (inactive)
[29]
  GI50: > 100 µM (inactive)
[30]
  GI50: > 100 µM (inactive)
[31]
  GI50: 84.9 µM (inactive)
[32]
  GI50: 18.1 µM (inactive)
[33]
  GI50: > 100 µM (inactive)
[34]
  GI50: > 100 µM (inactive)
[35]
  GI50: > 100 µM (inactive)
[36]
  GI50: 11.3 µM (inactive)
[37]
  GI50: > 100 µM (inactive)
[38]
  GI50: > 100 µM (inactive)
[39]
  GI50: 49.2 µM (inactive)
[40]
  GI50: > 100 µM (inactive)
[41]
  GI50: > 100 µM (inactive)
[42]
  GI50: > 100 µM (inactive)
[43]
  GI50: 26.3 µM (inactive)
[44]
  GI50: 15.6 µM (inactive)
[45]
  GI50: > 100 µM (inactive)
[46]
  GI50: > 100 µM (inactive)
[47]
  GI50: > 100 µM (inactive)
[48]
  GI50: > 100 µM (inactive)
[49]
  GI50: 72.6 µM (inactive)
[50]
  GI50: > 100 µM (inactive)
[51]
  GI50: 99.3 µM (inactive)
[52]
  GI50: > 100 µM (inactive)
[53]
  GI50: > 100 µM (inactive)
[54]
  GI50: 95.5 µM (inactive)
[55]
  GI50: > 100 µM (inactive)
[56]
  GI50: > 100 µM (inactive)
[57]
  GI50: > 100 µM (inactive)
[58]
  GI50: > 100 µM (inactive)
[59]
  GI50: > 100 µM (inactive)
